From the METLIN SMRT retention time set (Domingo-Almenara et al. 2019) come the findings set out here.

The series is described as follows: gradient 5% acetonitrile 3 min, to 50% in 2 min, to 85% in 15 min, held 3 min, 100 µL/min. As to conditions: column: Zorbax Extend-C18 2.1 x 50 mm; eluents: water / acetonitrile, 0.1% formic acid. The gist of the method:
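Pure standards were analyzed in mixtures of ~100 molecules using HPLC coupled to a quadrupole time-of-flight mass spectrometer, in both positive and negative ionization mode. Separation used a Zorbax Extend-C18 column (2.1 × 50 mm, 1.8 μm) at 100 μL/min, with water and acetonitrile each containing 0.1% formic acid. Dead and dwell volumes were 40 μL and 900 μL, and data were collected over 3 months. Retention time was read from computationally picked adduct peaks, each inspected manually.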
Consider `COc1ccc(NC(=O)N2CCN(c3cc(C)nc(N4CCOCC4)n3)CC2)c(OC)c1`, for which the RP-LC retention time was found to be 589 s.
The molecule `O=C(CCc1nc2ccccc2s1)N1[C@H]2CC[C@@H]1c1cnc(-c3ccc(F)cc3)nc1C2` showed an RP-LC retention time of 960 s.
The value for `Cc1ccc(CNC(=O)c2ccc3c(c2)nc2n3CCCCC2)o1` was 619 s; that for `COc1ccc(-c2c(C)noc2NC(C)=O)cc1S(=O)(=O)N1CCN(c2ccccn2)CC1` was 612 s; that for `CC(C)Cc1cc(-c2nnc3sc(-c4cccc(N(C)C)c4)nn23)n[nH]1` was 1020 s.
In the case of `COc1ccc(-c2nc3cc(C)ccn3c2Nc2ccccc2C)cc1`, the RP-LC retention time was determined as 743 s.
`Cc1nc(C)c(C(=O)Nc2nc(-c3ccc(C)c(C)c3)cs2)s1`: the RP-LC retention time was 1060 s.
On to `CCN1CCN(C(=O)CN2C(=O)COc3ccc(C(=O)N(CC)CC)cc32)CC1`, for which the RP-LC retention time worked out at 581 s.
The value for `COCCn1cc2c3c(cccc31)CN(C(=O)c1ccc(Cl)s1)CC2` was 1060 s; that for `O=C(Nc1ccccc1NC(=O)c1ccc(Br)o1)c1ccsc1` was 806 s; that for `COC(=O)N1CCc2ccc(F)cc2C1C(=O)Nc1cccc2nsnc12` (stereo not given) was 754 s.
Regarding `CCOC(=O)C1CCN(C2=NS(=O)(=O)c3ccccc32)CC1`, the RP-LC retention time is 739 s.
As to `COCCNc1c(-c2ccc(F)cc2)nc2sc(C(=O)N(C)C)c(C)n12`, the RP-LC retention time was 702 s.
The value for `O=C(c1ccccc1)N1CCC(C(=O)N2CCc3ccccc32)CC1` was 750 s.
Turning to `CCc1noc(-c2ccc(SCC(=O)N3CCCCCC3)nc2)n1`, the RP-LC retention time was 939 s.
Consider `Cc1cccc(Nc2c(-c3ccc(C(=O)O)cc3)nc3cnccn23)c1C`, for which the RP-LC retention time came to 780 s.
The value for `COCCN1C(=O)c2ccccc2C(C(=O)N2CCN(Cc3ccccc3)CC2)C1c1cccs1` (stereo not given) was 661 s; that for `C[C@H]1CN(C(=O)NC2CCCCC2)C[C@@H]1c1nc(-c2cccnc2)no1` was 784 s.
In the case of `O=C(c1ccc(CS(=O)c2cccc(Cl)c2)o1)N1CCN(c2ccccn2)CC1` (stereo not given), the RP-LC retention time worked out at 602 s.
The molecule `CCN1CCN(c2nc(-c3cccc(C)c3)nnc2C)CC1` returned an RP-LC retention time of 575 s.
`COCCN1CCC(N2CCN(S(=O)(=O)c3ccc(F)cc3F)CC2)C1=O` (stereo not given) had an RP-LC retention time of 570 s.
`CS(=O)(=O)c1ccc(-c2cccc(NC(=O)Cc3cccs3)c2)nn1` yielded an RP-LC retention time of 707 s.
In turn, `O=C(Nc1nc(-c2ccncc2)cs1)c1ccc(NS(=O)(=O)c2ccccc2)cc1` showed an RP-LC retention time of 589 s.
Regarding `CC(C)c1noc(-c2ccc(-n3cnc(C(=O)N4CCOCC4)c3)nc2)n1`, the RP-LC retention time was 745 s.
The result for `CC(C)NC(=O)N1CCc2c(c(-c3nc(Cc4ccccc4)no3)nn2C)C1` reads 748 s; that for `Cc1ccc(CN2C[C@@H]3C(=O)N(Cc4ccc5c(c4)OCO5)C(=O)[C@@H]3C2)cc1C`, 691 s.
`O=C(Cn1c(=O)nc(N2CCCCC2)c2ccccc21)Nc1cc(F)cc(F)c1` yielded an RP-LC retention time of 829 s.
As for `CC1(C)CC(=O)c2cn(-c3ccc(F)cc3)c(=O)c(C(=O)Nc3cccnc3)c2C1`, the RP-LC retention time amounted to 707 s.
In turn, `Cc1cccc(C(=O)N2CCC3(CC2)NC(=O)c2cc(C)ccc2N3C)c1` gave an RP-LC retention time of 805 s.
On to `O=C(NC1CC1)c1cc(-c2ccc(F)cc2)n[nH]1`, for which the RP-LC retention time turned out to be 705 s.
Take `C=C1C(=O)O[C@@H]2[C@H]3O[C@]3(C)CC/C=C(/C)CC[C@@H]12`: the RP-LC retention time was 972 s.
Take `Cc1ccc(N2CC(c3noc(-c4cccn4C)n3)CC2=O)cc1` (stereo not given): the RP-LC retention time was 611 s.
On to `CCN1CCCn2cc(S(=O)(=O)NCc3ccccc3)cc2C1=O`, for which the RP-LC retention time was determined as 711 s.
For the molecule `COc1ccccc1NC(=O)N1CCCC1c1nncn1C1CCCC1` (stereo not given), the RP-LC retention time turned out to be 697 s.
For `COc1ccc(-c2nnc(-c3cccc(S(=O)(=O)N(C)C)c3)o2)cc1`, the RP-LC retention time came to 908 s.
With `Cn1c(=O)sc2cc(S(=O)(=O)N3CCC(C(=O)Nc4cccc(C#N)c4)CC3)ccc21`, the RP-LC retention time was determined as 860 s.
On to `Cn1c(=O)c2nc(SCCC(=O)NCc3cc(F)cc(F)c3)n(C)c2n(C)c1=O`, for which the RP-LC retention time was found to be 733 s.
In turn, `CCN(CC)C(=O)c1cc2c(s1)CCC(C(=O)Nc1ccc(N3CCOCC3)cc1)C2` (stereo not given) had an RP-LC retention time of 767 s.
`CC(C)NC(=O)c1ccc(OCC2CCN(C(=O)C(C)C)CC2)cc1` gave an RP-LC retention time of 756 s.
Regarding `COc1cccc(CNC(=O)Cn2c(C)nc3onc(C)c3c2=O)c1`, the RP-LC retention time was 727 s.
Regarding `CCCCC(=O)Nc1ccc(OCc2cc(C(=O)NC3CC3)no2)cc1`, the RP-LC retention time amounted to 798 s.
The molecule `Cc1ccc(Sc2nccnc2N2CCCC(C(=O)Nc3ccc(C)c(C)c3)C2)cc1` (stereo not given) registered an RP-LC retention time of 1290 s.
As to `O=c1ccc(N2CCC(NS(=O)(=O)c3ccc(F)c(F)c3)CC2)nn1CC1CC1`, the RP-LC retention time was 834 s.
Molecule `Cc1ccc(-c2c(C#N)c(N)nc(SCC(=O)NCc3ccccc3)c2C#N)cc1` showed an RP-LC retention time of 844 s.
As for `CCn1ccc(C(=O)NC2CCCN(c3cc(N(C)C)ncn3)C2)n1` (stereo not given), the RP-LC retention time came to 590 s.
The value for `NS(=O)(=O)c1ccc(NC(=O)Nc2ccc(F)cc2)cc1` was 772 s; that for `CCc1cccc(C)c1Nc1c(-c2cc(Br)ccc2O)nc2nc(C)cc(C)n12` was 1040 s.
For `CN(C1CCOCC1)C1CCN(C(=O)CCc2nc3ccccc3[nH]2)CC1`, the RP-LC retention time is 519 s.
For the molecule `Cc1cc(C(=O)Nc2ccc(CC(=O)NCc3cccs3)cc2)c(C)o1`, the RP-LC retention time came to 762 s.
`O=S(=O)(NCC1CCN(Cc2ccco2)CC1)c1ccc(F)c(Cl)c1` displayed an RP-LC retention time of 575 s.
In turn, `Cc1ccc2[nH]cc(CCN3CC(C(=O)Nc4cccc(C)c4C)CC3=O)c2c1` (stereo not given) gave an RP-LC retention time of 820 s.
`COCCCNC(=O)c1cc(-c2ccc(F)cc2)c[nH]1` returned an RP-LC retention time of 726 s.
Consider `CSc1ccccc1NC(=O)C(=O)NCC1(c2cccs2)CCCC1`, for which the RP-LC retention time turned out to be 1280 s.
The result for `CCOc1ccccc1NC(=O)N1CCCC1c1nc(-c2cccc(C)c2)no1` (stereo not given) reads 858 s.
`O=C(NCCCN1CCCC1=O)c1ccc(-c2ccc(N3CCSCC3)nc2)cc1` registered an RP-LC retention time of 619 s.
The molecule `O=C(CN1CCC(c2nc(-c3cccs3)no2)CC1)Nc1ccccc1C(F)(F)F` came in with an RP-LC retention time of 753 s.
On to `Cn1c(=O)c2ccn(CC(=O)N3CCN(c4ncccn4)CC3)c2n(C)c1=O`, for which the RP-LC retention time was 595 s.
The molecule `Cc1cc(C)cc(NS(=O)(=O)c2c(C)sc(C)c2-c2n[nH]c(C)c2C)c1` displayed an RP-LC retention time of 1110 s.
On to `COC(=O)c1c(C)[nH]c(C(=O)N2CCC(CC(=O)NCc3cccc(C)c3)CC2)c1C`, for which the RP-LC retention time was determined as 748 s.
As for `Fc1ccc(C2Cn3nnc(-c4nc(-c5ccccc5F)no4)c3CO2)cc1` (stereo not given), the RP-LC retention time is 1110 s.
